# Columns and labels:
# CCRF-CEM cells = assay: Cell proliferation and apoptosis (cell counting, Annexin V); type: cell-based, human
# Protocol: (§1) Cell proliferation of CCRF-CEM cells or shRNA transfected CCRF-CEM cells, in the presence or absence of appropriate drug, was followed by cell counting of samples in triplicate using a hemocytometer and trypan blue. For apoptosis determinations of untransfected or shRNA transfected CCRF-CEMs, cells were stained with APC-conjugated Annexin-V (BD Biosciences) in Annexin Binding Buffer (Miltyeni Biotec) and analyzed by flow cytometry. For primary T-ALL samples, cell viability was assessed using the BD Cell Viability kit (BD Biosciences) coupled with the use of fluorescent counting beads as previously described (Armstrong et al., 2009). For this, cells were plated with MS5-DL1 stroma cells, and after 72 hours following drug treatment cells were harvested and stained with an APC-conjugated anti-human CD45 followed by a staining with the above kit according to the manufacturer's instructions.
# Akt/PKB phosphorylation = assay: TCR-induced Akt/PKB phosphorylation in thymocytes (Western blot); type: cell-based, mouse; conditions: p110γ−/− thymocytes; IC87114 10 μM
# Protocol: Cell lysates (from cell lines or thymocytes) were prepared on ice in M-PER Mammalian Protein Extraction reagent (Pierce) containing a cocktail of protease and phosphatase inhibitors (Swat et al., 2006). Equal amounts of total protein from lysates were subjected to SDS-PAGE, transferred to PVDF membrane (Immobilon-P, Millipore), and membranes probed by overnight incubation with appropriate primary antibodies. Bound antibodies were visualized with HRP-conjugated secondary antibodies and ECL chemistry (SuperPico West, Pierce).
# To assess the requirement for p110δ in TCR-induced phosphorylation of Akt/PBK, single-cell suspensions of thymocytes (1×10^8/mL) from PI3Kγ-deficient animals were incubated with the p110δ-specific inhibitor IC87114 (10 μM) or with vehicle control (DMSO) for 30 minutes before TCR cross-linking, as described for the Ca^2+ flux assay. Aliquots (100 μL) were collected at 0, 10, 30, and 60 minutes after TCR cross-linking, briefly centrifuged to pellet, and subsequently lysed with ice-cold M-Per (Pierce, Rockford, IL) (according to the manufacturer's recommendations) that contained a cocktail of phosphatase and protease inhibitors (Puri et al., 2005). Lysates were clarified by centrifugation (12,000 g for 15 minutes at 4° C.), and total and phosphorylated Akt/PBK were determined by Western blot analysis.
# CD4+CD8+ DP thymocytes = assay: Fetal thymus organ culture, flow cytometry; type: cell-based, mouse; conditions: IC87114 10 μM, 1 week
# Source text: Thymus lobes were obtained from mouse embryos, with embryonic day 0 (EO) considered the day of vaginal plug detection. Fetal thymus organ cultures were used to compare the effects of pharmacologic blockade of p110δ activity on thymocyte development in WT, p110δ^−/−, and p110γ^−/− mice. Briefly, 3 to 4 intact thymi were placed on bare filter inserts (transwell, 3-μm pore size; Corning Costar, Cambridge, MA) and then were inserted into wells containing DMEM, 10% FCS supplemented with either p110δ-specific inhibitor IC87114 (10 μM) or vehicle control (DMSO), and incubated for 1 week at 37° C. in 5% CO2. Thymocyte differentiation was evaluated by flow cytometry.
# [1] = system: primary human T-ALL tumor cells; assay: Primary T-ALL cell viability on MS5-DL1 stroma; type: cell-based; conditions: selective blockade of PI3Kδ
# Protocol: as §1
# [2] = CCRF-CEM with p110γ shRNA knockdown, IC87114 10 μM
structure (smiles),measurement,setting,value
"Cc1ccccc1-n1c(Cn2cnc3c(N)ncnc32)nc2cccc(C)c2c1=O [IC87114, reference compound]",proliferation and apoptosis,"CCRF-CEM cells; CCRF-CEM containing empty vector alone, IC87114",no major effect
same,apoptosis,CCRF-CEM cells; [2],promoted apoptosis
same,proliferation,CCRF-CEM cells; [2],prevented proliferation
same,phosphorylated form of Akt/PKB after TCR cross-linking,Akt/PKB phosphorylation,not detected
same,reduction in the population of CD4+CD8+ DP thymocytes,"CD4+CD8+ DP thymocytes; p110γ−/− day 14.5 fetal thymi, mean±SE",69.2%±2.7%
same,decrease in DP cells,CD4+CD8+ DP thymocytes; p110δ−/− or WT control fetal thymi,≤ 10%
same,viability of primary human T-ALL samples,[1],ineffective

# Reference: US11969428B2, “Methods and pharmaceutical compositions for treating lymphoid malignancy” (priority 2011, dated 2024)
